According to patent US4345938A, “Herbicidal 2-haloacetanilides” (Monsanto Company, priority 1980, dated 1982):
Like-named read-outs stand apart in the source and are kept apart here.

How the values were obtained:
Type in all cases: in vivo
Monochoria vaginalis = assay: Greenhouse transplant rice test, MV; conditions: Pontederia vaginalis, about 3 WAT, read-out: Percent Inhibition, MV
Description: (§1) The test procedure used in this greenhouse test is as follows: Ray silt loam top soil containing about 0.05% by weight of krillium and sifted through a […] screen is fumigated about 5-10 days prior to use. Pots are then filled with said Ray silt loam soil to a level to allow for a 1 in. (2.54 cm) flooding depth. Rice plants (Bluebelle) of 2 to 3 weeks age are transplanted to the pots and bulbs or seeds of the test weeds also planted in the pots. The pots are then flooded and the test chemical applied to the surface of the flood water. The flood water is reduced to allow for germination of the Echinochloa crus-galli (barnyardgrass) seed and subsequently reflooded and maintained in that condition. Observations of percent inhibition using a scale of 0-100% are made about 3 weeks after transplant (WAT).
(§2) The test data in Table III for all compounds was obtained under identical test conditions. The weeds used in the tests herein have the following abbreviations in the tables: Echinochloa crus-galli (EC), Monochloria vaginalis (MV), Cyperus Serotinus (CS), Eleocharis Kuroguwai (EK) and Sagittaria trifolia (ST).

Cyperus serotinus = assay: Greenhouse transplant rice test, CS; conditions: about 3 WAT, read-out: Percent Inhibition, CS
Description: as §1, §2

Eleocharis kuroguwai = assay: Field transplant rice test, applied 0 DAT, EK; conditions: 0 h, read-out: Percent Inhibition, EK; for inhibition at 375 g/ha: 0.375 Kg/Ha; for inhibition at 750 g/ha: 0.75 Kg/Ha; for inhibition at 1500 g/ha: 1.5 Kg/Ha; for inhibition at 3000 g/ha: 3.0 Kg/Ha
Experimental: as §2
(§3) In further comparative tests, a preferred compound of this invention (Example 1) was tested in the field with prior art Compounds A-D. These tests were conducted under conditions reflecting herbicide application times generally favorable to all herbicides in the test. The timing of application of herbicides to transplant rice is very important, whether, as in some instances, prior to transplanting the rice; in other instances, at the time of transplanting or else after transplanting. Application times are conventionally referred to as "days before transplant" (DBT) or "days after transplant" ("DAT"). The field test data in Table IV was obtained from a test in which the herbicides were applied at the time of transplant, i.e., "0 DAT", with observations being made weekly up to six weeks after transplant ("WAT") beginning at two weeks after transplant; for illustrative and representative purposes, only the early, middle and late period observations, i.e., 2 WAT, 4 WAT and 6 WAT, are shown in Table IV. The data in Table IV is for rates of application common to all herbicides in the test, i.e., from 3.0 kg/ha (2.67 lb/A) down to 0.375 kg/ha (0.34 lb/A). All herbicides were applied at their actual or expected use rates, i.e., as granules containing 2.5% by weight herbicide for the compound of Example 1, Compounds B, C and D and 5.0% by weight for Compound A.

Sagittaria trifolia = assay: Field transplant rice test, applied 9 DAT, ST; conditions: 216 h, read-out: Percent Inhibition, ST; for inhibition at 375 g/ha: 0.375 Kg/Ha; for inhibition at 750 g/ha: 0.75 Kg/Ha; for inhibition at 1500 g/ha: 1.5 Kg/Ha; for inhibition at 3000 g/ha: 3.0 Kg/Ha
Experimental: as §2, §3
In Table V are presented field data showing the relative performance of the compound of Example 1 and Compounds A-D applied 9 DAT, with observations being made weekly from 3 WAT to 7 WAT; again, for illustrative and representative purposes, only the early, middle and late period observations are reported in Table V, the herbicide rates and concentrations of active ingredients the same as is shown in Table IV.

CCCCOCN(C(=O)CCl)c1c(CC)cccc1CC [Compound A, 2',6'-diethyl-N-(n-butoxymethyl)-2-chloroacetanilide] showed an inhibition at 280 g/ha (Monochoria vaginalis; 0.28 Kg/Ha) of 98%, an inhibition at 560 g/ha (Monochoria vaginalis; 0.56 Kg/Ha) of 100% and an inhibition at 1120 g/ha (Monochoria vaginalis; 1.12 Kg/Ha) of 100%. For the same molecule, the inhibition at 2240 g/ha (Monochoria vaginalis; 2.24 Kg/Ha) was 100%, the inhibition at 280 g/ha (Cyperus serotinus; 0.28 Kg/Ha) was 100% and the inhibition at 560 g/ha (Cyperus serotinus; 0.56 Kg/Ha) was 85%. It also gave an inhibition at 1120 g/ha (Cyperus serotinus; 1.12 Kg/Ha) of 90%, an inhibition at 2240 g/ha (Cyperus serotinus; 2.24 Kg/Ha) of 100% and an inhibition at 375 g/ha (Eleocharis kuroguwai; 2 WAT) of 65%. It also gave an inhibition at 375 g/ha (Eleocharis kuroguwai; 4 WAT) of 33%, an inhibition at 375 g/ha (Eleocharis kuroguwai; 6 WAT) of 10% and an inhibition at 750 g/ha (Eleocharis kuroguwai; 2 WAT) of 45%. It also gave an inhibition at 750 g/ha (Eleocharis kuroguwai; 4 WAT) of 22%, an inhibition at 750 g/ha (Eleocharis kuroguwai; 6 WAT) of 0% and an inhibition at 1500 g/ha (Eleocharis kuroguwai; 2 WAT) of 83%. It also gave an inhibition at 1500 g/ha (Eleocharis kuroguwai; 4 WAT) of 78%, an inhibition at 1500 g/ha (Eleocharis kuroguwai; 6 WAT) of 28% and an inhibition at 3000 g/ha (Eleocharis kuroguwai; 2 WAT) of 90%. It also gave an inhibition at 3000 g/ha (Eleocharis kuroguwai; 4 WAT) of 88%, an inhibition at 3000 g/ha (Eleocharis kuroguwai; 6 WAT) of 68% and an inhibition at 375 g/ha (Sagittaria trifolia; 3 WAT) of 37%. For the same molecule, the inhibition at 375 g/ha (Sagittaria trifolia; 5 WAT) was 12%, the inhibition at 375 g/ha (Sagittaria trifolia; 7 WAT) was 7% and the inhibition at 750 g/ha (Sagittaria trifolia; 3 WAT) was 26%. For the same molecule, the inhibition at 750 g/ha (Sagittaria trifolia; 5 WAT) was 10%, the inhibition at 750 g/ha (Sagittaria trifolia; 7 WAT) was 8% and the inhibition at 1500 g/ha (Sagittaria trifolia; 3 WAT) was 35%. It also gave an inhibition at 1500 g/ha (Sagittaria trifolia; 5 WAT) of 5%, an inhibition at 1500 g/ha (Sagittaria trifolia; 7 WAT) of 3% and an inhibition at 3000 g/ha (Sagittaria trifolia; 3 WAT) of 52%. The inhibition at 3000 g/ha (Sagittaria trifolia; 5 WAT) was 23% and the inhibition at 3000 g/ha (Sagittaria trifolia; 7 WAT) was 13%.

CCCCOCCN(C(=O)CCl)c1c(CC)cccc1CC [Compound B, 2',6'-diethyl-N-(n-butoxyethyl)-2-chloroacetanilide] gave an inhibition at 375 g/ha (Eleocharis kuroguwai; 2 WAT) of 48%, an inhibition at 375 g/ha (Eleocharis kuroguwai; 4 WAT) of 37% and an inhibition at 375 g/ha (Eleocharis kuroguwai; 6 WAT) of 7%. The inhibition at 750 g/ha (Eleocharis kuroguwai; 2 WAT) was 63%, the inhibition at 750 g/ha (Eleocharis kuroguwai; 4 WAT) was 42% and the inhibition at 750 g/ha (Eleocharis kuroguwai; 6 WAT) was 0%. For the same molecule, the inhibition at 1500 g/ha (Eleocharis kuroguwai; 2 WAT) was 73%, the inhibition at 1500 g/ha (Eleocharis kuroguwai; 4 WAT) was 65% and the inhibition at 1500 g/ha (Eleocharis kuroguwai; 6 WAT) was 17%. The inhibition at 3000 g/ha (Eleocharis kuroguwai; 2 WAT) was 100%, the inhibition at 3000 g/ha (Eleocharis kuroguwai; 4 WAT) was 94% and the inhibition at 3000 g/ha (Eleocharis kuroguwai; 6 WAT) was 72%. For the same molecule, the inhibition at 375 g/ha (Sagittaria trifolia; 3 WAT) was 5%, the inhibition at 375 g/ha (Sagittaria trifolia; 5 WAT) was 2% and the inhibition at 375 g/ha (Sagittaria trifolia; 7 WAT) was 5%. For the same molecule, the inhibition at 750 g/ha (Sagittaria trifolia; 3 WAT) was 38%, the inhibition at 750 g/ha (Sagittaria trifolia; 5 WAT) was 12% and the inhibition at 750 g/ha (Sagittaria trifolia; 7 WAT) was 10%. For the same molecule, the inhibition at 1500 g/ha (Sagittaria trifolia; 3 WAT) was 40%, the inhibition at 1500 g/ha (Sagittaria trifolia; 5 WAT) was 25% and the inhibition at 1500 g/ha (Sagittaria trifolia; 7 WAT) was 13%. The inhibition at 3000 g/ha (Sagittaria trifolia; 3 WAT) was 42%, the inhibition at 3000 g/ha (Sagittaria trifolia; 5 WAT) was 25% and the inhibition at 3000 g/ha (Sagittaria trifolia; 7 WAT) was 12%.

Work on CCCCOCN(C(=O)CCl)c1c(C)cccc1C(C)(C)C [Compound C, 2'-methyl-6'-tert-butyl-N-(n-butoxymethyl)-2-chloroacetanilide] yielded an inhibition at 375 g/ha (Eleocharis kuroguwai; 2 WAT) of 63%, an inhibition at 375 g/ha (Eleocharis kuroguwai; 4 WAT) of 52% and an inhibition at 375 g/ha (Eleocharis kuroguwai; 6 WAT) of 18%. It also gave an inhibition at 750 g/ha (Eleocharis kuroguwai; 2 WAT) of 68%, an inhibition at 750 g/ha (Eleocharis kuroguwai; 4 WAT) of 58% and an inhibition at 750 g/ha (Eleocharis kuroguwai; 6 WAT) of 18%. For the same molecule, the inhibition at 1500 g/ha (Eleocharis kuroguwai; 2 WAT) was 85%, the inhibition at 1500 g/ha (Eleocharis kuroguwai; 4 WAT) was 93% and the inhibition at 1500 g/ha (Eleocharis kuroguwai; 6 WAT) was 67%. It also gave an inhibition at 3000 g/ha (Eleocharis kuroguwai; 2 WAT) of 82%, an inhibition at 3000 g/ha (Eleocharis kuroguwai; 4 WAT) of 90% and an inhibition at 3000 g/ha (Eleocharis kuroguwai; 6 WAT) of 80%. It also gave an inhibition at 375 g/ha (Sagittaria trifolia; 3 WAT) of 47%, an inhibition at 375 g/ha (Sagittaria trifolia; 5 WAT) of 10% and an inhibition at 375 g/ha (Sagittaria trifolia; 7 WAT) of 2%. For the same molecule, the inhibition at 750 g/ha (Sagittaria trifolia; 3 WAT) was 32%, the inhibition at 750 g/ha (Sagittaria trifolia; 5 WAT) was 8% and the inhibition at 750 g/ha (Sagittaria trifolia; 7 WAT) was 0%. It also gave an inhibition at 1500 g/ha (Sagittaria trifolia; 3 WAT) of 48%, an inhibition at 1500 g/ha (Sagittaria trifolia; 5 WAT) of 17% and an inhibition at 1500 g/ha (Sagittaria trifolia; 7 WAT) of 7%. It also gave an inhibition at 3000 g/ha (Sagittaria trifolia; 3 WAT) of 30%, an inhibition at 3000 g/ha (Sagittaria trifolia; 5 WAT) of 13% and an inhibition at 3000 g/ha (Sagittaria trifolia; 7 WAT) of 3%.

CCCOCCN(C(=O)CCl)c1c(CC)cccc1CC [Compound D, 2',6'-diethyl-N-(n-propoxyethyl)-2-chloroacetanilide] showed an inhibition at 375 g/ha (Eleocharis kuroguwai; 2 WAT) of 62%, an inhibition at 375 g/ha (Eleocharis kuroguwai; 4 WAT) of 20% and an inhibition at 375 g/ha (Eleocharis kuroguwai; 6 WAT) of 0%. The inhibition at 750 g/ha (Eleocharis kuroguwai; 2 WAT) was 63%, the inhibition at 750 g/ha (Eleocharis kuroguwai; 4 WAT) was 40% and the inhibition at 750 g/ha (Eleocharis kuroguwai; 6 WAT) was 10%. The inhibition at 1500 g/ha (Eleocharis kuroguwai; 2 WAT) was 70%, the inhibition at 1500 g/ha (Eleocharis kuroguwai; 4 WAT) was 67% and the inhibition at 1500 g/ha (Eleocharis kuroguwai; 6 WAT) was 47%. The inhibition at 3000 g/ha (Eleocharis kuroguwai; 2 WAT) was 85%, the inhibition at 3000 g/ha (Eleocharis kuroguwai; 4 WAT) was 75% and the inhibition at 3000 g/ha (Eleocharis kuroguwai; 6 WAT) was 22%. The inhibition at 375 g/ha (Sagittaria trifolia; 3 WAT) was 45%, the inhibition at 375 g/ha (Sagittaria trifolia; 5 WAT) was 12% and the inhibition at 375 g/ha (Sagittaria trifolia; 7 WAT) was 7%. The inhibition at 750 g/ha (Sagittaria trifolia; 3 WAT) was 42%, the inhibition at 750 g/ha (Sagittaria trifolia; 5 WAT) was 25% and the inhibition at 750 g/ha (Sagittaria trifolia; 7 WAT) was 18%. It also gave an inhibition at 1500 g/ha (Sagittaria trifolia; 3 WAT) of 43%, an inhibition at 1500 g/ha (Sagittaria trifolia; 5 WAT) of 25% and an inhibition at 1500 g/ha (Sagittaria trifolia; 7 WAT) of 22%. For the same molecule, the inhibition at 3000 g/ha (Sagittaria trifolia; 3 WAT) was 73%, the inhibition at 3000 g/ha (Sagittaria trifolia; 5 WAT) was 60% and the inhibition at 3000 g/ha (Sagittaria trifolia; 7 WAT) was 52%.
